Measured values as given in US5874597A, “Certain aminosterol compounds and pharmaceutical compositions including these compounds” (priority 1995, dated 1999).
Entries after “also recorded” stand apart in the source; their conditions may differ.

Experiments:
[1] = tested on: NHE; test: direct inhibition of NHE
Source text: Moreover, other aminosterols have shown anti-angiogenic activity. Compounds were subjected to a various assays, including the chick embryo capillary regression assay, the tadpole assay, the assay for inhibition of endothelial cord formation, and the assay for direct inhibition of NHE, as described above, to determine their utilities. As evident from the above data, correlation among the results from the chick, tadpole and in vitro inhibition of endothelial cell cord formation assays is excellent.

[2] = tested on: B16 melanoma; test: suppression of B16 melanoma growth in C57B mice; format: in vivo, mouse
Experimental: The growth of B16 melanoma in C57B mice is dependent upon neovascularization.
Using the growth of B16 melanoma cells in C57B mice, a recognized model for the evaluation of inhibitors of angiogenesis on the growth of cancers, the effects of subcutaneous, intraperitoneal and oral administration of squalamine were evaluated.
Based on the idea that tumor growth involves both the clonal expansion of a malignant cell along with the development of a supporting vascular supply, a combination of compound 1436 with squalamine was tested to determine whether it would achieve a synergistic effect on solid tumor growth. This concept was evaluated in the B16 melanoma model.
Animals were implanted with B16 melanoma followed by treatment with compound 1436 or 1256 administered in a combined schedule or separately. […] Thus, a combination of these two compounds achieves a therapeutic benefit in tumors dependent on neovascularization that may prevent metastatic spread.

[3] = tested on: Xenopus tadpole (stage 59-60); test: Xenopus tadpole assay; format: in vivo, Xenopus laevis; details: 10 μg/ml; about 1 hour
[4] = tested on: vitelline capillaries of chick embryo; test: chick embryo vitelline capillary regression assay; format: in vivo; details: in vivo
Experimental: Using the chick embryo vitelline capillaries assay, compounds were tested for their ability to induce capillary regression. Each compound was applied in 0.1 ml of 15% Ficol 400 and PBS onto the embryo, and vascular regression was assessed after 60 minutes.
The 3-day chick embryo consists of an embryonic disc from which numerous vessels emerge and return, forming a "figure 8"-shaped structure--the embryo in the center with vascular loops extending outward over both poles. […] Following a lag period of around 15 minutes, the constriction of continuity between capillary and secondary vessels, generally on the "venous" side, was observed. Continued pulsatile blood flow progressed, resulting in a "swelling" of the blind tube, followed by a pinching off of the remaining connection and formation of an enclosed vascular sac resembling a "blood island." This process progressed until only the largest vessels remained intact.

[5] = fasting blood glucose in mice; format: in vivo, mouse; details: intravenous; vs. Group 1
Experimental: To study the effect of steroid administrator or the NHE responsible for secretion of insulin, several of the aminosterols from shark liver were administered to fasting mice. Male CD-1 mice were assigned to one of four treatment groups. Whole blood glucose was tested using glucometer (Lifescan Glucometer II and One Touch test strips). Statistical analysis was via one-way analysis of variance (ANOVA) followed by subsequent Bonferonni's t-test.

[6] = tested on: Human coronary artery smooth muscle cells; test: proliferation of human coronary artery smooth muscle in vitro; format: cell-based; details: FIG. 15
Source text: As set forth in Table 7 below, all malignant tumors evaluated in tissue culture, endothelial cells and vascular smooth muscle cells were sensitive to inhibition. Thus, compound 1436 has application in the control of growth factor dependent proliferation of many types of tissue.
Aminosterols of the invention may also have utility in inhibiting the growth factor mediated proliferation of smooth muscle within the artery. Following coronary angioplasty, reocclusion commonly occurs, secondary to reparative proliferation of the vascular smooth muscle within the wall of the surgically manipulated blood vessel. This process generally takes place over the course of 7-10 days. To evaluate whether an agent could prevent the growth factor mediated proliferation of smooth muscle within the artery, compound 1436 was evaluated in vitro for its effect on the proliferation of human coronary artery smooth muscle. Results for compound 1436 are shown in FIG. 13, and those for squalamine are shown in FIG. 14, with FIG. 15 being a composite logarithmic plot.

[7] = growth and weight gain of C57B mice; format: in vivo, mouse; details: 10 mg/kg QTD i.p.; 6 doses, about 1 month
Experimental: Animals were dosed QTD (i.p.) starting on Day 1. […] Animals receiving 5 mg/kg QTD experienced about a 50% reduction in growth, compared to untreated controls, while animals receiving 1 mg/kg QTD were affected by about 10%. […] They appeared very much like hypophysectamized animals might appear.

[8] = arterial resistance in the rat after i.v. administration; format: in vivo
Experimental: A 200-g rat was catheterized in the right carotid artery, and the compound was introduced over a ten-second period to a total dosage of 5 mg/kg. Within 30 seconds, the mean arterial pressure had fallen from about 100 mm Hg to about 70 mm Hg, with a marked reduction in pulse pressure from about 40 mm to about 10 mm. […] If cardiac output was basically unaffected, reduction in blood pressure would have resulted principally from a reduction in system resistance.
At that time, 40 μg of noradrenaline was introduced.

[9] = tested on: L1210 lymphoblastic leukemia; test: mouse L1210 leukemia model, survival; format: in vivo; details: highest dose, 10 mg/kg every 3 days i.p.
[10] = target: rabbit NHE3 (Oryctolagus cuniculus, UniProt P26432); test: inhibition of rabbit NHE3 in transfected PS120 fibroblasts (internal pH, BCECF-AM)
Chain of rabbit NHE3 (P26432 30-832): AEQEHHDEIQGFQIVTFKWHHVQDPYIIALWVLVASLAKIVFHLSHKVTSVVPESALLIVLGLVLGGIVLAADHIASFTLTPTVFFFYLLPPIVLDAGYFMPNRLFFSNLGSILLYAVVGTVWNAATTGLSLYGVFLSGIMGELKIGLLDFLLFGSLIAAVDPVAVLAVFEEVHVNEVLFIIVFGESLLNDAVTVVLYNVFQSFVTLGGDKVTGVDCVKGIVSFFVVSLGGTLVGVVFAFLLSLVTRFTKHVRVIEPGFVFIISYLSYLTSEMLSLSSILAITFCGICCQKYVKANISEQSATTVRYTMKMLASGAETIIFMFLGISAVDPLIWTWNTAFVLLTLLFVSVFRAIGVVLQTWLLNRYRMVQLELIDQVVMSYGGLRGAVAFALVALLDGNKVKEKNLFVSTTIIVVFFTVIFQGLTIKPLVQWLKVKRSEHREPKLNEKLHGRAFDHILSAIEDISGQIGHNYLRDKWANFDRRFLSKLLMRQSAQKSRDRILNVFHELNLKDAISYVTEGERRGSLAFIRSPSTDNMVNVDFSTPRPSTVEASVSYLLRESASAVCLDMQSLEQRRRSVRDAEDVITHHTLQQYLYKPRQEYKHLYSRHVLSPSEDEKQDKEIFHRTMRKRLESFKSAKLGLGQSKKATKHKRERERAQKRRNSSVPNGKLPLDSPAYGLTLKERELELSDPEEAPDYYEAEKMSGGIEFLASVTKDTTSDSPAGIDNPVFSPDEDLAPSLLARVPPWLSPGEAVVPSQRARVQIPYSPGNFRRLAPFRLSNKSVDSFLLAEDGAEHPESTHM
Experimental: Internal pH was measured either following acid loading or in the absence of an acid-loading challenge, with the results shown in FIGS. 1A and 1B.
Specifically, PS120 fibroblasts transfected with rabbit NHE3 were grown in supplemented Dulbecco's-modified Eagle's medium as described by Levine et al., J. Biol. Chem. 268, 1993, 25527-25535. […] For cells not acid-preloaded, the actual internal pH value was monitored as a function of time following addition of squalamine, with the results depicted in FIG. 1B.
PS120 fibroblasts transfected with rabbit NHE3 were grown and acid preloaded by exposure to 40 mM NH4 Cl as described above in conjunction with FIGS. 1A and 1B. Internal cellular pH changes expressed as the rate of pH recovery as a function of restored extracellular sodium ion concentration following exposure to 10 μg/ml of the compound were assayed with the fluorescent dye BCECF-AM as described above.

[11] = tested on: human umbilical venous endothelial cells; test: LPS/TNF-α-induced neutrophil adherence to human umbilical venous endothelial cells; format: cell-based; details: three different subjects; LPS or TNF-α activated
Source text: Methods 109, 1988, 175-184.

[12] = tested on: human epithelial cell line MCF 10A; test: growth inhibition of human epithelial cells; details: 10 μg/ml
[13] = tested on: human melanoma 1205Lu; test: suppression of human melanoma 1205Lu in RAG-1 mice; format: in vivo; details: 10, 20, 40 mg/kg/d
Source text: As apparent from FIG. 5, melanoma 1205Lu develops aggressively in RAG-1 mice after implantation.

[14] = tested on: chorioallantoic membrane capillaries; test: chorioallantoic membrane (CAM) model, inhibition of capillary growth; format: in vivo, chick; details: for Percentage positive, Assay 1 / Percentage positive, Assay 2 / Percentage positive, Mean: 3-Day Embryo
Source text: The growing capillaries within the chorioallantoic membrane model (CAM model) have been used as a system in which to evaluate the effect of agents on their potential to inhibit new vessel growth. Neovascularization occurs most aggressively over the first week of embryonic development. Thereafter capillary growth is characterized by principally "elongation" rather than "de novo" formation.
In the standard assay, agents are applied locally to a region of the embryo over which neovascularization will occur. Agents are assessed by their ability to inhibit this process, as evaluated by visual examination about 7 days after application. […] The assay utilized is described in detail in Auerbach et al., Pharm. Ther. 51, 1991, 1-11.

[15] = tested on: human microvascular cells; test: inhibition of endothelial cell cord formation in vitro; format: cell-based; details: at cord-inhibiting concentrations
Source text: Endothelial cells have the capacity in vitro to form tubular aggregates resembling capillaries in various early stages of formation. This conversion occurs under relatively specific conditions, in which essential growth factors along with an effective substratum are provided. It has been shown that both the interaction of growth factors with the endothelial cell and its attachment to a substratum activate the NHE. The activation of this exchanger is believed to be required for subsequent morphologic transformation of the endothelial cell into a multicellular tubular structure.
To assess the effect of compounds on the cord-like structures formed by human microvascular cells when plated in the presence of VEGF (Vascular Endothelial Growth Factor) and basic fibroblast growth factor on a collagen matrix, a standard cord formation assay was used.

[16] = tested on: human foreskin fibroblasts; test: growth inhibition of human fibroblasts; details: 10 μg/ml
[17] = 20 μg, * = some vascular irritation noted
[18] = 40 μg, * = some vascular irritation noted

For `C[C@H](CCC(=O)O)[C@H]1CC[C@H]2[C@@H]3CC[C@H]4C[C@@H](NCCCNCCCCN)CC[C@]4(C)[C@H]3CC[C@]12C` [Compound 319], the “potency as an NHE inhibitor” value [1] was “superior to squalamine”, the “control of B16 melanoma” value ([2]; compound 319 subcutaneous, C57B mice, FIG. 6) was “almost comparable to squalamine” and the “tadpole response” value [3] was “common vascular occlusive effect”. For the same compound, the “effect on vitelline capillaries / chick embryo” value [4] was “especially active”.
For `CC(C)[C@@H](CC[C@@H](C)[C@H]1CC[C@H]2[C@@H]3[C@H](O)C[C@H]4C[C@@H](NCCCNCCCCNCCCN)CC[C@]4(C)[C@H]3CC[C@]12C)OS(=O)(=O)O` [Compound 1436], the “fasting blood glucose effect” value [5] was “caused hyperglycemia in mice”, the “impact on tumor volume” value ([2]; compound 1436 10 mg/kg/every 3 days alone) was “no significant impact on tumor volume” and the “suppression of growth of human coronary artery smooth muscle” value [6] was “suppress in vitro the growth of human coronary artery smooth muscle”. For the same compound, the “growth inhibition in mice” value [7] was “growth was almost completely inhibited”, the reversibility of effect ([8]; 40 μg noradrenaline) was “readily reversible” and the persistence of effect ([8]; followed for 30 minutes) was “without significant change”. The prolongation of life [9] was “significant prolongation of life”, the “tadpole response” value [3] was “common vascular occlusive effect; also recorded: Gradual reduction in overall activity; also recorded: Heart beat remained strong, suggesting nervous system depression; also recorded: Melanocytes over head and tail began to swell; also recorded: dramatic disruption of melanocytes over its head, trunk, and tail; also recorded: No effects are observed on epithelial cell integrity, vascular flow, erythrocyte volume, tissue integrity, muscle fiber striation, or GI tract activity” and the “effect on vitelline capillaries / chick embryo” value [4] was “about the same potency as squalamine”. For the same compound, the “inhibition of rabbit NHE3” value ([10]; 10 μg/ml, acid-preloaded 40 mM NH4Cl) was “inhibit rabbit NHE3”.
With `CC(C)[C@@H](CC[C@@H](C)[C@H]1CC[C@H]2[C@@H]3[C@H](O)C[C@H]4C[C@@H](NCCCNCCCCN)CC[C@]4(C)[C@H]3CC[C@]12C)OS(=O)(=O)O` [squalamine] the “inhibition of neutrophil adherence” value [11] was “no inhibition”, the “impact on tumor volume” value ([2]; squalamine 5 mg/kg/day alone) was “no significant impact on tumor volume” and the “suppression of B16 tumor volume” value ([2]; squalamine s.c., i.p. or oral, C57B mice) was “dose-dependent suppression of tumor volume”. For the same compound, the “body weight and hematologic parameters” value ([2]; squalamine-treated mice) was “no significant depression”, the “suppression of growth of human coronary artery smooth muscle” value [6] was “suppress in vitro the growth of human coronary artery smooth muscle” and the “growth of epithelial line” value [12] was “no effect”. The “suppression of growth of melanoma 1205Lu” value [13] was “clear suppression of tumor growth in a dose-dependent fashion; also recorded: reversible”, the “Percentage positive, Assay 1” value ([14]; 0.65 μg) was 28% and the “Percentage positive, Assay 1” value ([14]; 1.25 μg) was 18%. The “Percentage positive, Assay 2” value ([14]; 1.25 μg) was 18%, the “Percentage positive, Mean” value ([14]; 1.25 μg) was 18% and the “Percentage positive, Assay 1” value ([14]; 2.5 μg) was 35%. For the same compound, the “Percentage positive, Assay 2” value ([14]; 2.5 μg) was 18%, the “Percentage positive, Mean” value ([14]; 2.5 μg) was 27% and the “Percentage positive, Assay 1” value ([14]; 5.0 μg) was 91%. The “Percentage positive, Assay 2” value ([14]; 5.0 μg) was 57%, the “Percentage positive, Mean” value ([14]; 5.0 μg) was 74% and the “Percentage positive, Mean” value ([14]; 20 μg) was 55%. For the same compound, the “Percentage positive, Assay 1” value [14, 17] was 52* %, the “Percentage positive, Assay 2” value [14, 17] was 58* % and the “Percentage positive, Mean” value ([14]; 40 μg) was 32%. For the same compound, the “Percentage positive, Assay 1” value [14, 18] was 50* %, the “Percentage positive, Assay 2” value [14, 18] was 13* % and the “positive, Assay 1 (count)” value ([14]; 13-Day Embryo, 5.0 μg) was 0/26. For the same compound, the “inhibitory effect on older CAM” value ([14]; 13-day old chick, ten times 0.65 μg) was “no inhibitory effect”, the “effect on cell viability or proliferation in cord assay” value [15] was “does not appear to profoundly affect cell viability or proliferation” and the “tadpole response” value [3] was “blood flow through the capillaries of the tail shut down; also recorded: unaltered blood flow through the fine capillaries of the hands and feet; also recorded: common vascular occlusive effect; also recorded: Vascular occlusion in fine capillaries of tail; also recorded: No effect on vascular flow through hands or feet”. The “effect on vitelline capillaries / chick embryo” value [4] was “disrupt vitelline capillaries in 3- to 5-day chick embryos; also recorded: No hemorrhage was seen; also recorded: absence of hemolysis; also recorded: especially active”, the “specificity NHE3 over NHE1” value [10] was “specificity for NHE3 over NHE1” and the “inhibition of NHE3 (Km and Vmax)” value ([10]; 5 μg/ml, acid-preloaded 40 mM NH4Cl) was “inhibited NHE3 with respect to proton concentration at both Km and Vmax levels”. For the same compound, the “resting pH of cells” value ([10]; 5 μg/ml, not acid-preloaded) was “the resting pH of these cells was also inhibited” and the “growth of fibroblast line” value [16] was “no effect”.
